# Experimental data: patent US6004749A, “Method for identifying compounds affecting RNA/RNA binding protein interactions” (Message Pharmaceuticals, priority 1997, dated 1999)
# pEC50: −log10 of the molar value. Entries after “also recorded” stand apart in the source; their conditions may differ.
# Legend:
# [1] = test system: TNF-α 3' untranslated region / human cell RBP's; assay: High throughput screening assay, TNF-α 3' untranslated region with total protein extract; type: binding; conditions: TNF-α 3' UTR; for pEC50: read-out: EC50 on in vitro binding; for effect on TNF-α RNA/RBP interaction, in words: total protein extract
# Procedure: FIG. 9A is a graph of the level of RNA/RBP interactions (between the TNF-α 3' untranslated region and human cell RBP's) in the presence or absence of test compounds. […] The remaining columns include RNA plus extract in the presence of specific compounds.
# (§1) All binding reactions are performed in 96-well polystyrene plates in a final volume of 10 or 100 μl. The assays were constituted and performed as described below. Specifically, assays were performed by (1) forming a binding solution including RNA molecules, 7.5 mM BTP at pH 8.5, 10 mM KCl, 5 mM MgCl2, 0.2 mM DTT, and 10% glycerol, (2) heating the binding solution to denature the RNA molecules, (3) cooling the binding solution, (4) adding RNA binding proteins to the binding solution, (5) loading the binding solution onto a filter, and (6) detecting the amount RNA retained on the filter. It is preferred that the samples be loaded on to a filter of either pure nitrocellulose or a mixed cellulose ester (MCA). It is also preferred that the filters have a 0.2μ pore size, although filters with a 0.45μ pore size will also bind the RNA/RNA binding protein complex. It is preferred that, prior to loading the binding solution onto a filter, the volume is increased. For this purpose, it is preferred that the dilution solution has the same buffer components as the binding solution except lacking the density agent. For a 10 μl volume it is preferred that the final volume be about 100 μl by addition of 1× binding buffer. It is also preferred that the binding solution be loaded onto the filter under vacuum. It is also preferred that the filter is washed twice prior to detecting the amount of RNA retained on the filter. Preferably the wash solution had the same composition as the dilution solution. However, TE (pH 8.0), PBS, or TCA can also be used as wash solutions. In most of the assays described below, the RNA molecules were labeled with ^32 P.
# This example describes identification of compounds which either increase or decrease the binding interaction between a site within an RNA molecule which interacts with an RBP. This example makes use of a total protein extract which allows identification of compounds that modulate interactions without the need for identification of the specific RBP(s) involved.
# [2] = test system: IRE RNA / RNA binding protein (K562 protein extract); assay: Filter binding assay, IRE RNA with K562 protein extract; conditions: hemin 1 to 100 μM; FeCl3 1 μM to 1 mM; desferroxiamine 1 μM to 1 mM
# Text: FIG. 6 is a graph of the amount of radioactively labeled RNA retained on a filter (expressed in percent of the amount of RNA retained on a filter in a reference binding solution) following loading of various binding solutions. All of the binding solutions contained radioactively labeled IRE RNA either alone or including various other components. The first column represents a binding solution without RNA binding protein. The remaining columns represent binding solutions containing RNA binding protein (K562 extract). […] Desferal and des indicate that the binding solutions included the indicated amount of desferroxiamine as a test compound.
# FIG. 8 is a graph of the amount of radioactively labeled RNA retained on a filter (expressed in percent of the amount of RNA retained on a filter in a reference binding solution) following loading of various binding solutions. Alternate columns correspond to binding solutions containing radioactively labeled AUUUA RNA or IRE RNA, either alone or including various other components. The first two column represents binding solutions without RNA binding protein. The remaining columns represent binding solution containing RNA binding protein (K562 extract). Columns 5 through 40 correspond to binding solutions including the indicated amount of the indicated test compound.
# All binding reactions are performed in 96-well polystyrene plates in a final volume of 10 or 100 μl. The assays were constituted and performed as described below. […]
# Binding assays were performed with wild-type IRE RNA and K562 protein extract in the presence of sources of iron or iron chelators to determine the ability of the filter assay to detect the modulation of binding interactions by small molecules. […] The reactions were analyzed by gel shifts to visualize the results of the filter assay.
# [3] = test system: iron response element RNA/RBP interaction; assay: Control assay using the iron response element (Example 4); type: binding; conditions: increasing concentrations; unrelated RNA specificity control
# [4] = test system: AUUUA RNA / RNA binding protein (K562 extract); assay: High throughput filter binding assay, 32P-labeled AUUUA RNA with K562 protein extract
# Text: FIG. 7 is a graph of the amount of radioactively labeled RNA retained on a filter (expressed in percent of the amount of RNA retained on a filter in a reference binding solution) following loading of various binding solutions. All of the binding solutions contained radioactively labeled AUUUA RNA either alone or including various other components. The first column represents a binding solution without RNA binding protein. The remaining columns represent binding solution containing RNA binding protein (K562 extract). Columns 3 through 8 correspond to binding solutions including the indicated test compound.
# as §1
# The library was initially screened at 10 μM against ^32 P-labeled AUUUA RNA. Several methods of introducing the compounds into the binding reaction were tested. Initially the compounds were coincubated with the RNA and protein, producing modest results. Next, preincubation with either the protein extract or the RNA was tried with improved results.
# Seventeen compounds were chosen for further analysis at 100 nM, 1 μM and 10 μM using both AUUUA and IRE RNAs based on the results from four screening efforts (Exps. 29-31, 33). Table 2 summarizes the results from these compounds at 10 μM. The results are also shown graphically in FIG. 7. […] Compounds D9 and H2, chosen as negative controls from the initial screening, continued to have no effect in the dose dependent screen (Exp. 33) and were identified as vehicle controls.
# [5] = test system: TNF-α production; conditions: previously shown; cited from earlier work
# [6] = compound 10 μM, RNA & K562 = 100.00
molecule,measurement,setting,value
CC(=NNC(=N)N)c1cc(NC(=O)CCCCCCC(=O)Nc2cc(C(C)=NNC(=N)N)cc(C(C)=NNC(=N)N)c2)cc(C(C)=NNC(=N)N)c1 [SYM 1710],potentiation of binding,[1],approximately 3 fold
same,pEC50,[1],4.64
hemin,"modulation of IRE/protein binding by iron sources or iron chelator, in words",[2],concentration-dependent inhibition of binding
"CC(=O)N(O)CCCCCNC(=O)CCC(=O)N(O)CCCCCNC(=O)CCC(=O)N(O)CCCCCN [Desferroxiamine, desferroxiamine]","modulation of IRE/protein binding by iron sources or iron chelator, in words",[2],did not change the amount IRE/protein complex formed
Cc1c(CCN)c2c3n1CCCC3CCC2 (centres unmarked) [SYM 1405],inhibition of binding,[1],about 40%
same,"effect on TNF-α RNA/RBP interaction, in words",[1],inhibited binding of TNF-α in a concentration-dependent manner; also recorded: concentration-dependent inhibition
same,pEC50,[1],~5.70
same,"effect on iron response element binding, in words",[3],little effect on the iron response element
"CC(=NNC(=N)N)c1cc(NC(=O)CCCCCCCCC(=O)Nc2cc(C(C)=NNC(=N)N)cc(C(C)=NNC(=N)N)c2)cc(C(C)=NNC(=N)N)c1 [Compound G10, CNI-1493]","effect on counts (AUUUA RNA binding), in words","[4]; 10 μM, AUUUA RNA",substantial increase in counts in 3 of the 4 experiments
same,"Avg. % (labeled AUUUA RNA retained on filter, average of Experiments #33, #31, #30, #29)",[4]; [6],111.00%
same,"Labeled AUUUA RNA retained on filter, percent of RNA & K562 control, Experiment #29",[4]; [6],114.53%
same,"Labeled AUUUA RNA retained on filter, percent of RNA & K562 control, Experiment #30",[4]; [6],66.94%
same,"Labeled AUUUA RNA retained on filter, percent of RNA & K562 control, Experiment #31",[4]; [6],127.28%
same,"Labeled AUUUA RNA retained on filter, percent of RNA & K562 control, Experiment #33",[4]; [6],135.24%
same,"effect on TNF-α production, in words",[5],post-transcriptionally inhibit TNF-α production
O=[N+]([O-])c1ccc(C(Cl)=NCCCN=Cc2ccc3c(c2)OCO3)cc1 [SYM 1301],"effect on TNF-α RNA/RBP interaction, in words",[1],no effect
[Cl][Fe]([Cl])[Cl] [FeCl3],"modulation of IRE/protein binding by iron sources or iron chelator, in words",[2],concentration-dependent inhibition of binding
